According to patent publication US11992499B2, “Quinoline derivatives for use in the treatment of inflammation diseases” (ABIVAX, priority 2018, dated 2024):
Entries after “also recorded” stand apart in the source; their conditions may differ. Read-outs that look alike come from different tables or passages of the source.

How the values were obtained:
[1] = system: STAM model of non-alcoholic steatohepatitis; assay: STAM model of NASH: liver triglyceride content; assay type: in vivo, mice; conditions: n = 8
Procedure: (§1) NASH was induced in 48 male mice by a single subcutaneous injection of 200 μg streptozotocin (STZ, Sigma-Aldrich, USA) solution 2 days after birth and feeding with high fat diet (HFD, 57 kcal % fat, Cat #HFD32, CLEA Japan, Inc., Japan) after 4 weeks of age.
(§2) Compound A was administered at 3 dose levels of 10, 20 and 40 mg/kg once daily from 6 to 9 weeks of age. Compound B was administered at a dose of 40 mg/kg once daily from 6 to 9 weeks of age. Telmisartan was administered at a dose of 10 mg/kg once daily from 6 to 9 weeks of age.
Liver total lipid-extracts were obtained by Folch's method (Folch J. et al., J. Biol. Chem. 1957; 226: 497). Liver samples were homogenized in chloroform-methanol (2:1, v/v) and incubated overnight at room temperature. After washing with chloroform-methanol-water (8:4:3, v/v/v), the extracts were evaporated to dryness, and dissolved in isopropanol. Liver triglyceride content was measured by Triglyceride E-test (FUJIFILM Wako Pure Chemical Corporation, Japan).

[2] = system: STAM model of non-alcoholic steatohepatitis; assay: STAM model of NASH: Sirius red staining, fibrosis area; assay type: in vivo, mice; conditions: for Sirius red-positive area (fibrosis area, mean ± SD): n = 8
Procedure: NASH was induced in 48 male mice by a single subcutaneous injection of 200 μg streptozotocin (STZ, Sigma-Aldrich, USA) solution 2 days after birth and feeding with high fat diet (HFD, 57 kcal % fat, Cat #HFD32, CLEA Japan, Inc., Japan) after 4 weeks of age. Compound A was administered at 3 dose levels of 10, 20 and 40 mg/kg once daily from 6 to 9 weeks of age. Compound B was administered at a dose of 40 mg/kg once daily from 6 to 9 weeks of age. Telmisartan was administered at a dose of 10 mg/kg once daily from 6 to 9 weeks of age. For HE staining, sections were cut from paraffin blocks of liver tissue prefixed in Bouin's solution and stained with Lillie-Mayer's Hematoxylin (Muto Pure Chemicals Co., Ltd., Japan) and eosin solution (FUJIFILM Wako Pure Chemical Corporation). NAFLD Activity score (NAS) was calculated according to the criteria of Kleiner (Kleiner D E. et al., Hepatology, 2005; 41:1313). To visualize collagen deposition, Bouin's fixed liver sections were stained using picro-Sirius red solution (Waldeck, Germany). For quantitative analysis of fibrosis area, bright field images of Sirius red-stained sections were captured around the central vein using a digital camera (DFC295; Leica, Germany) at 200-fold magnification, and the positive areas in 5 fields/section were measured using ImageJ software (National Institute of Health, USA).

[3] = system: STAM model of non-alcoholic steatohepatitis; assay: STAM model of NASH: plasma ALT; assay type: in vivo, mice; conditions: for Plasma ALT (mean ± SD): n = 8
Procedure: NASH was induced in 48 male mice by a single subcutaneous injection of 200 μg streptozotocin (STZ, Sigma-Aldrich, USA) solution 2 days after birth and feeding with high fat diet (HFD, 57 kcal % fat, Cat #HFD32, CLEA Japan, Inc., Japan) after 4 weeks of age. Compound A was administered at 3 dose levels of 10, 20 and 40 mg/kg once daily from 6 to 9 weeks of age. Compound B was administered at a dose of 40 mg/kg once daily from 6 to 9 weeks of age. Telmisartan was administered at a dose of 10 mg/kg once daily from 6 to 9 weeks of age. For plasma biochemistry, non-fasting blood was collected in polypropylene tubes with anticoagulant (Novo-Heparin, Mochida Pharmaceutical Co. Ltd., Japan) and centrifuged at 1,000×g for 15 minutes at 4° C. The supernatant was collected and stored at −80° C. until use. Plasma ALT was measured by FUJI DRI-CHEM 7000 (Fujifilm, Japan).

[4] = system: STAM model of non-alcoholic steatohepatitis; assay type: in vivo; conditions: for Liver weight (mean ± SD) / Liver-to-body weight ratio (mean ± SD): n = 8
Text: To prepare dosing solution, Compound A and B were weighed and suspended in Vehicle which was composed of 20% of Vehicle-A1 and 80% of Vehicle-A2. Vehicle-A1 was composed of 0.5% (w/v) Carboxymethyl cellulose (CMC) 400-800 centipoises in water for injection+2.5% (w/v) Tween 80. Vehicle-A2 was composed of 0.5% (w/v) Carboxymethyl cellulose (CMC) 400-800 centipoises in water for injection. Telmisartan (Micardis®) was purchased from Boehringer Ingelheim GmbH (Germany) and dissolved in pure water.
as §1
Compound A and B, and Telmisartan were administered orally in a volume of 10 mL/kg.
as §2
C57BL/6 mice (14-day-pregnant female) were obtained from Japan SLC, Inc. (Japan). All animals used in the study were housed and cared for in accordance with the Japanese Pharmacological Society Guidelines for Animal Use.
Group 1: Vehicle Eight NASH mice were orally administered vehicle [20% of Vehicle-A1 and 80% of Vehicle-A2] in a volume of 10 mL/kg once daily from 6 to 9 weeks of age.
Eight NASH mice were orally administered vehicle supplemented with Compound A at a dose of 10 mg/kg once daily from 6 to 9 weeks of age.
Eight NASH mice were orally administered vehicle supplemented with Compound A at a dose of 20 mg/kg once daily from 6 to 9 weeks of age.
Eight NASH mice were orally administered vehicle supplemented with Compound A at a dose of 40 mg/kg once daily from 6 to 9 weeks of age.
Eight NASH mice were orally administered vehicle supplemented with Compound B at a dose of 40 mg/kg once daily from 6 to 9 weeks of age.
Eight NASH mice were orally administered pure water supplemented with Telmisartan at a dose of 10 mg/kg once daily from 6 to 9 weeks of age.
The viability, clinical signs and behavior were monitored daily. Body weight was recorded before the treatment. […] The animals were sacrificed at 9 weeks of age by exsanguination through direct cardiac puncture under isoflurane anesthesia (Pfizer Inc.).

[5] = 10 mg/kg PO QD, 6-9 wks of age (Compound A low, Telmisartan groups)
[6] = 20 mg/kg PO QD, 6-9 wks of age (Compound A middle group)
[7] = 40 mg/kg PO QD, 6-9 wks of age (Compound A high, Compound B groups)
[8] = 20 mg/kg PO QD (Compound A middle group)
[9] = 10 mg/kg PO QD (Compound A low, Telmisartan groups)
[10] = 40 mg/kg PO QD (Compound A high, Compound B groups)

With `FC(F)(F)Oc1ccc(Nc2ccc3cccc(Cl)c3n2)cc1` [Compound A, 8-Chloro-N-(4-(trifluoromethoxy)phenyl)quinolin-2-amine] the “Liver triglyceride (mean ± SD)” value [1, 5] was 64.9 ± 27.6 mg/g liver, the “Liver triglyceride (mean ± SD)” value [1, 6] was 63.1 ± 21.2 mg/g liver and the “Liver triglyceride (mean ± SD)” value [1, 7] was 66.6 ± 25.6 mg/g liver. For the same compound, the “Sirius red-positive area (fibrosis area, mean ± SD)” value [2, 5] was 0.70 ± 0.11%, the “Fibrosis area (Sirius red-positive area) compared with the Vehicle group” value [2, 8] was “tended to decrease; also recorded: decreasing trends” and the “Sirius red-positive area (fibrosis area, mean ± SD)” value [2, 6] was 0.65 ± 0.13%. The “Sirius red-positive area (fibrosis area, mean ± SD)” value [2, 7] was 0.68 ± 0.14%, the “Pathological deposition of collagen in the liver (Sirius red staining)” value ([2]; summary statement, dose not stated) was “decreasing trend” and the “Plasma ALT level compared with the Vehicle group” value [3, 9] was “tended to increase; also recorded: increasing trend”. The “Plasma ALT (mean ± SD)” value [3, 5] was 75 ± 31 U/L, the “Plasma ALT level compared with the Vehicle group” value [3, 8] was “tended to increase; also recorded: increasing trend” and the “Plasma ALT (mean ± SD)” value [3, 6] was 91 ± 15 U/L. For the same compound, the “Plasma ALT level compared with the Vehicle group” value [3, 10] was “significant increase”, the “Plasma ALT (mean ± SD)” value [3, 7] was 133 ± 100 U/L and the “Mean liver weight compared with the Vehicle group” value [4, 9] was “significant increase”. For the same compound, the “Mean liver-to-body weight ratio compared with the Vehicle group” value (from here on “Mean liver-to-body weight ratio”) [4, 9] was “tended to increase”, the “Liver weight (mean ± SD)” value [4, 5] was 1662 ± 254 mg and the “Liver-to-body weight ratio (mean ± SD)” value [4, 5] was 8.4 ± 1.8%. The “Mean liver weight compared with the Vehicle group” value [4, 8] was “no significant difference”, the “Mean liver-to-body weight ratio” value [4, 8] was “tended to increase” and the “Liver weight (mean ± SD)” value [4, 6] was 1500 ± 77 mg. For the same compound, the “Liver-to-body weight ratio (mean ± SD)” value [4, 6] was 7.6 ± 0.4%, the “Mean liver weight compared with the Vehicle group” value [4, 10] was “tended to increase” and the “Mean liver-to-body weight ratio” value [4, 10] was “tended to increase”. The “Liver weight (mean ± SD)” value [4, 7] was 1654 ± 145 mg and the “Liver-to-body weight ratio (mean ± SD)” value [4, 7] was 8.5 ± 1.1%.
